Experiments:
Ba/F3-TEL-FLT4 (VEGFR3) = assay: In vitro proliferation of BaF3 cell line, Ba/F3-TEL-FLT4; assay type: cell-based
Description: The mother solution was prepared into a total of 9 concentration gradients (10.0000 mM, 2.5000 mM, 0.6250 mM, 0.1563 mM, 0.0391 mM, 0.0098 mM, 0.0024 mM, 0.0006 mM and 0.0002 mM) in a 4-fold dilution and stored in a 96-well plate (Beaver, Suzhou), while the same volume of DMSO solvent was used as a negative control. • 1. Cell suspension in logarithmic growth phase was taken and inoculated in a white 96-well cell culture plate (Corning 3917, NY, USA) with a volume of 95 μL per well (2000 cells/well). • 2. Diluted medium-compound mixture was added in a volume of 5 μL per well, respectively, and the final concentration of DMSO in Ba/F3-TEL-FLT1 (VEGFR1), Ba/F3-TEL-FLT4 (VEGFR3) and Ba/F3-TEL-VEGFR2 cells was 0.1%.
• 3. The plate was incubated in a 37° C., 5% CO2 incubator for 72 h. • 4. The proliferation inhibitory activity and data analysis of the compound by CellTiter-Glo method were the same as in Experimental embodiment 1.

[1] = system: gastric cancer cells SNU-16 with high expression of FGFR2; assay: Cell proliferation inhibition, CellTiter-Glo, SNU-16; assay type: cell-based; settings: Homo sapiens, 72 h, SNU-16, cultured for 3 days
Description: The compounds of the present disclosure can target and inhibit FGFR and VEGFR pathways, and inhibit tumor cell growth by inhibiting VEGF/VEGFR and FGF/FGFR signaling pathways. In this experiment, human non-small cell lung cancer cells NCI-H1581 with high expression of FGFR1, gastric cancer cells SNU-16 with high expression of FGFR2, and human bladder cancer cells RT112/84 with high expression of FGFR3 were selected. In this experiment, the inhibitory effect of compounds on cell proliferation was investigated by detecting the effect of the compounds of the present disclosure on the cell viability in vitro in the tumor cell lines NCI-H1581, SNU-16 and RT-112/84.
Regular passage, and cells in logarithmic growth phase were taken for plating.
• (1) Cells were stained with trypan blue and viable cells were counted. • (2) The cell concentration was adjusted to an appropriate concentration.
• (3) 90 μL of cell suspension per well was added to a culture plate, and cell-free culture solution was added to the blank control well. • (4) The plate was cultured overnight in a 37° C., 5% CO2 incubator with 100% relative humidity.
• (1) Preparation of 10× compound working solution: 78 μL of cell culture medium was added to a V-bottom 96-well plate, and 2 μL of compound was pipetted from a 400× compound storage plate and added to the cell culture medium of the 96-well plate. […]

For `CS(=O)(=O)O.Cn1cc(-c2ccn3c(-c4cc(NS(C)(=O)=O)nc(-c5ccc(F)cc5F)c4)cnc3c2)cn1`, the Maximum inhibition (Ba/F3-TEL-FLT4 (VEGFR3); 72 h) was 100%, the Minimum inhibition (Ba/F3-TEL-FLT4 (VEGFR3); 72 h) was −2.54% and the IC50 (Ba/F3-TEL-FLT4 (VEGFR3); Mus musculus, BaF3, 72 h, read-out: Relative IC50) was 395 nM. For the same molecule, the IC50 [1] was 44.5 nM.

Source: US20240409534A1, “CRYSTAL FORM OF METHYLPYRAZOLE-SUBSTITUTED PYRIDOIMIDAZOLE COMPOUND AND PREPARATION METHOD THEREFOR” (priority 2021, published 2024)
